Reference: US20210269451A1, “PYRIDINYL HETEROCYCLYL COMPOUNDS FOR THE TREATMENT OF AUTOIMMUNE DISEASE” (Hoffmann-La Roche Inc., priority 2018, published 2021)
pIC50: −log10 of the molar value.

Target: T1, human TLR7 (Homo sapiens, UniProt Q9NYK1)
T1 construct: host or cells: HEK293-Blue-hTLR-7 (HEK293)
T1 sequence (Q9NYK1 27-1049): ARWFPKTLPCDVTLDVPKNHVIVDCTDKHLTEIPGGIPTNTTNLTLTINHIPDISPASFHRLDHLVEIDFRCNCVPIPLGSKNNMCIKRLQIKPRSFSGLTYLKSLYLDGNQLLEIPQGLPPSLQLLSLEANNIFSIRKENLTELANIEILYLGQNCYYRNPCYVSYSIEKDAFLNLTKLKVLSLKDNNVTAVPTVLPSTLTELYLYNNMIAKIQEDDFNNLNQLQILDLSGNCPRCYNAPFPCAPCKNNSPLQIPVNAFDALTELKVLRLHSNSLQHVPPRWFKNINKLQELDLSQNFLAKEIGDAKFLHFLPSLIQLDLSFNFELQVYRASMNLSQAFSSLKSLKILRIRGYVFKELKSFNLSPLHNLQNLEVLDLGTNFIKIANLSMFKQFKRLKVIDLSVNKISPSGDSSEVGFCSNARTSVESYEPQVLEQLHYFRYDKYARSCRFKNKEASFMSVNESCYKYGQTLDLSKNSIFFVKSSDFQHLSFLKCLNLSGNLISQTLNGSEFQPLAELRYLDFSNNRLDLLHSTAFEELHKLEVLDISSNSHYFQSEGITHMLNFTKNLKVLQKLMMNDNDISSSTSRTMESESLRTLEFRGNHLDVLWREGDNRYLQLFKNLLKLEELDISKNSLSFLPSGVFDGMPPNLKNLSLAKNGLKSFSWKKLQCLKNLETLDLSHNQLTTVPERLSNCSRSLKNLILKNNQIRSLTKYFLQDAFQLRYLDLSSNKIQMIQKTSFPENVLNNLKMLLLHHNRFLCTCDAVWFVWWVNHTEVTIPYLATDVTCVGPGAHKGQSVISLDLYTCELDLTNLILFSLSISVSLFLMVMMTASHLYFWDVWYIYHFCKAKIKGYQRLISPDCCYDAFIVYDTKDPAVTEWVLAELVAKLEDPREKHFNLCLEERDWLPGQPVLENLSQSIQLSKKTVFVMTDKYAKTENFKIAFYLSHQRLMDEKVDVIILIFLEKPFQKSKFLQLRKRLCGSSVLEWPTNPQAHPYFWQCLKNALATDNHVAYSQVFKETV
Test: HEK293-Blue-hTLR-7 cells assay
Assay type: cell-based
Details: HEK293-Blue-hTLR7 cells, R848 stimulation, 20 hrs, SEAP reporter; read-out: HEK/hTLR7 IC50
Protocol: The following tests were carried out in order to determine the activity of the compounds of formula (I) and (Ia) in HEK293-Blue-hTLR-7/8/9 cells assay.
HEK293-Blue-hTLR-7 cells assay:
A stable HEK293-Blue-hTLR-7 cell line was purchased from InvivoGen (Cat. #: hkb-htlr7, San Diego, Calif., USA). These cells were originally designed for studying the stimulation of human TLR7 by monitoring the activation of NE-κB. A SEAP (secreted embryonic alkaline phosphatase) reporter gene was placed under the control of the IFN-β minimal promoter fused to five NE-κB and AP-1-binding sites. The SEAP was induced by activating NE-κB and AP-1 via stimulating HEK-Blue hTLR7 cells with TLR7 ligands. Therefore the reporter expression was declined by TLR7 antagonist under the stimulation of a ligand, such as R848 (Resiquimod), for incubation of 20 hrs. The cell culture supernatant SEAP reporter activity was determined using QUANTI-Blue™ kit (Cat. #: rep-qbl, Invivogen, San Diego, Ca, USA) at a wavelength of 640 nm, a detection medium that turns purple or blue in the presence of alkaline phosphatase.
HEK293-Blue-hTLR7 cells were incubated at a density of 250,000-450,000 cells/mL in a volume of 170 μL in a 96-well plate in Dulbecco's Modified Eagle's medium (DMEM) containing 4.5 g/L glucose, 50 U/mL penicillin, […], […], 2 mM L-glutamine, 10% (v/v) heat-inactivated fetal bovine serum with addition of 20 μL test compound in a serial dilution in the presence of final DMSO at 1% and 10 μL of 20 uM R848 in above DMEM, perform incubation under 37° C. in a CO2 incubator for 20 hrs. Then 20 μL of the supernatant from each well was incubated with 180 μL Quanti-blue substrate solution at 37° C. for 2 hrs and the absorbance was read at 620˜655 nm using a spectrophotometer. The signalling pathway that TLR7 activation leads to downstream NE-κB activation has been widely accepted, and therefore similar reporter assay was modified for evaluating TLR7 antagonist.

| Compound | pIC50 |
| --- | --- |
| Cc1cc(N2CCOC3CN(CC4CN(c5ccc(C#N)c6ncccc56)CC(C)O4)CC32)cc(C)n1 (single isomer, unassigned) [Example 17A] | > 8.52 |
| Cc1cc(N2CCOC3CN(CC4CN(c5ccc(C#N)c6ncccc56)CC(C)O4)CC32)cc(C)n1 (single isomer, unassigned) [Example 17B] | 7.96 |
| Cc1cc(N2CC3(CN(C[C@H]4CN(c5ccc(C#N)c6ncccc56)C[C@@H](C)O4)C3)C2)cc(CO)n1 [Example 1, 5-[(2S,6R)-2-[[2-[2-(hydroxymethyl)-6-methyl-4-pyridyl]-2,6-diazaspiro[3.3]heptan-6-yl]methyl]-6-methyl-morpholin-4-yl]quinoline-8-carbonitrile] | 7.55 |
| C[C@@H]1CN(c2ccc(C#N)c3ncccc23)C[C@H](CN2CC3(C2)CN(c2ccnc(C4CC4)c2)CCO3)O1 [Example 3, 5-[(2S,6R)-2-[[8-(2-cyclopropyl-4-pyridyl)-5-oxa-2,8-diazaspiro[3.5]nonan-2-yl]methyl]-6-methyl-morpholin-4-yl]quinoline-8-carbonitrile] | > 8.52 |
| Cc1cc(N2CCN(C[C@H]3CN(c4ccc(C#N)c5ncccc45)C[C@@H](C)O3)[C@@H](C)C2)cc(CO)n1 [Example 4A] | 8.05 |
| Cc1cc(N2CCN(C[C@H]3CN(c4ccc(C#N)c5ncccc45)C[C@@H](C)O3)[C@H](C)C2)cc(CO)n1 [Example 4B] | 8.00 |
| Cc1cc(NC2CCN(C[C@H]3CN(c4ccc(C#N)c5ncccc45)C[C@@H](C)O3)CC2)cc(CO)n1 [Example 5] | 7.23 |
| Cc1cc(NC2CCN(C[C@H]3CN(c4ccc(C#N)c5ncccc45)C[C@@H](C)O3)C2)cc(CO)n1 (stereo partly drawn) [Example 6] | 7.36 |
| Cc1cc(NC2CN(C[C@H]3CN(c4ccc(C#N)c5ncccc45)C[C@@H](C)O3)C2)cc(C)n1 [Example 7] | 7.59 |
| Cc1cc(N2CCC23CN(C[C@H]2CN(c4ccc(C#N)c5ncccc45)C[C@@H](C)O2)C3)cc(C)n1 [Example 8] | 8.15 |
| Cc1cc(N2CCC3(CN(C[C@H]4CN(c5ccc(C#N)c6ncccc56)C[C@@H](C)O4)C3)C2)cc(C)n1 [Example 9] | 7.80 |
| Cc1cc(N2C[C@H]3CN(C[C@H]4CN(c5ccc(C#N)c6ncccc56)C[C@@H](C)O4)C[C@H]3C2)cc(CO)n1 [Example 10] | 7.24 |
| Cc1cc(N(C)C2CN(C[C@H]3CN(c4ccc(C#N)c5ncccc45)C[C@@H](C)O3)C2)cc(C)n1 [Example 11] | 8.10 |
| Cc1cc(N2CCC23CN(C[C@H]2CN(c4ccc(C#N)c5ncccc45)C[C@@H](C)O2)C3)cc(CO)n1 [Example 12] | 7.89 |
| Cc1cc(N2CCOC3(CN(C[C@H]4CN(c5ccc(C#N)c6ncccc56)C[C@@H](C)O4)C3)C2)cc(C)n1 [Example 14] | > 8.52 |
| Cc1cc(N2CCC23CN(C[C@H]2CN(c4ccc(C#N)c5ncccc45)C[C@@H](C)O2)C3)ccn1 [Example 15] | 8.15 |
| Cc1cc(N2CCOC3(CN(C[C@H]4CN(c5ccc(C#N)c6ncccc56)C[C@@H](C)O4)C3)C2)ccn1 [Example 16] | > 8.52 |
| C[C@@H]1CN(c2ccc(C#N)c3ncccc23)C[C@H](CN2CCN(c3ccnc(N)c3)CC2)O1 [Example 19, 5-[(2S,6R)-2-[[4-(2-amino-4-pyridyl)piperazin-1-yl]methyl]-6-methyl-morpholin-4-yl]quinoline-8-carbonitrile] | 8.22 |

| Compound | pIC50 |
| --- | --- |
| C[C@@H]1CN(c2ccc(C#N)c3ncccc23)C[C@H](CNC2CCN(c3ccnc(N)c3)CC2)O1 [Example 20, 5-[(2S,6R)-2-[[[1-(2-amino-4-pyridyl)-4-piperidyl]amino]methyl]-6-methyl-morpholin-4-yl]quinoline-8-carbonitrile] | 6.70 |
| C[C@@H]1CN(c2ccc(C#N)c3ncccc23)C[C@H](CN[C@@H]2CCCN(c3ccnc(N)c3)C2)O1 [Example 21, 5-[(2S,6R)-2-[[[(3R)-1-(2-amino-4-pyridyl)-3-piperidyl]amino]methyl]-6-methyl-morpholin-4-yl]quinoline-8-carbonitrile] | 7.21 |
| C[C@@H]1CN(c2ccc(C#N)c3ncccc23)C[C@H](CN[C@H]2CCCN(c3ccnc(N)c3)C2)O1 [Example 22] | 7.43 |
| Cc1cc(N2CCC(NC[C@H]3CN(c4ccc(C#N)c5ncccc45)C[C@@H](C)O3)CC2)cc(CO)n1 [Example 23] | 6.64 |
| Cc1cc(N2CCC[C@@H](NC[C@H]3CN(c4ccc(C#N)c5ncccc45)C[C@@H](C)O3)C2)cc(CO)n1 [Example 24] | 7.59 |
| Cc1cc(N2CCC[C@H](NC[C@H]3CN(c4ccc(C#N)c5ncccc45)C[C@@H](C)O3)C2)cc(CO)n1 [Example 25] | 7.47 |
| Cc1cc(N2CC[C@@H](NC[C@H]3CN(c4ccc(C#N)c5ncccc45)C[C@@H](C)O3)C2)cc(CO)n1 [Example 28] | 6.91 |
| Cc1cc(N2CC[C@H](NC[C@H]3CN(c4ccc(C#N)c5ncccc45)C[C@@H](C)O3)C2)cc(CO)n1 [Example 29] | 6.81 |
| Cc1cc(N2CC(NC[C@H]3CN(c4ccc(C#N)c5ncccc45)C[C@@H](C)O3)C2)cc(CO)n1 [Example 30] | 7.19 |
| Cc1cc(N2CC[C@H](F)[C@H](NC[C@H]3CN(c4ccc(C#N)c5ncccc45)C[C@@H](C)O3)C2)cc(CO)n1 [Example 33] | 7.92 |
| Cc1cc(N2CC[C@@H](F)[C@H](NC[C@H]3CN(c4ccc(C#N)c5ncccc45)C[C@@H](C)O3)C2)cc(CO)n1 [Example 34] | 7.92 |
| Cc1cc(N2CCC[C@@H](N(C)C[C@H]3CN(c4ccc(C#N)c5ncccc45)C[C@@H](C)O3)C2)cc(CO)n1 [Example 35] | 7.77 |
| Cc1cc(N2CC(NC[C@H]3CN(c4ccc(C#N)c5ncccc45)C[C@@H](C)O3)CC(F)(F)C2)cc(CO)n1 (stereo partly drawn) [Example 36] | 7.77 |
| Cc1cc(N2CC(N(C)C[C@H]3CN(c4ccc(C#N)c5ncccc45)C[C@@H](C)O3)C2)cc(CO)n1 [Example 37] | 7.47 |
| Cc1cc(N2CCC[C@H](N(C)C[C@H]3CN(c4ccc(C#N)c5ncccc45)C[C@@H](C)O3)C2)cc(CO)n1 [Example 38] | 7.46 |
| Cc1cc(N2CCN(C[C@H]3CN(c4ccc(C#N)c5ncccc45)C[C@@H](C)O3)CC2)cc(N)n1 [Example 40, 5-[(2S,6R)-2-[[4-(2-amino-6-methyl-4-pyridyl)piperazin-1-yl]methyl]-6-methyl-morpholin-4-yl]quinoline-8-carbonitrile] | 8.10 |
| CNc1cc(N2CCN(C[C@H]3CN(c4ccc(C#N)c5ncccc45)C[C@@H](C)O3)CC2)cc(C)n1 [Example 42, 5-[(2R,6S)-2-methyl-6-[[4-[2-methyl-6-(methylamino)-4-pyridyl]piperazin-1-yl]methyl]morpholin-4-yl]quinoline-8-carbonitrile] | 7.89 |
| Cc1cc(C2CCN(C[C@H]3CN(c4ccc(C#N)c5ncccc45)C[C@@H](C)O3)CC2)cc(N)n1 [Example 43, 5-[(2S,6R)-2-[[4-(2-amino-6-methyl-4-pyridyl)-1-piperidyl]methyl]-6-methyl-morpholin-4-yl]quinoline-8-carbonitrile] | 8.15 |
